Measurements from patent publication US11541050B2, “Pyrimidine derivatives for the treatment of viral infections” (JANSSEN SCIENCES IRELAND UC, priority 2011, dated 2023).

What follows are compounds tested on human TLR8 mutant sequence comprising a deletion in the second leucine-rich repeat (assay: TLR8 cellular NFκB-luc reporter assay, mutant TLR8 with deletion in the second leucine-rich repeat). Conditions: lowest effective concentration.
Type: cell-based
Parameters: unit not given here
Protocol: (§1) The ability of compounds to activate human TLR7 and/or TLR8 was assessed in a cellular reporter assay using HEK293 cells transiently transfected with a TLR7 or TLR8 expression vector and NFκB-luc reporter construct. In one instance the TLR expression construct expresses the respective wild type sequence or a mutant sequence comprising a deletion in the second leucine-rich repeat of the TLR.
(§2) Briefly, HEK293 cells were grown in culture medium (DMEM supplemented with 10% FCS and 2 mM Glutamine). For transfection of cells in 10 cm dishes, cells were detached with Trypsin-EDTA, transfected with a mix of CMV-TLR7 or TLR8 plasmid (750 ng), NFκB-luc plasmid (375 ng) and a transfection reagent and incubated for 48 hours at 37° C. in a humidified 5% CO2 atmosphere. […] Thirty microliters of cells were then dispensed into each well in 384-well plates, where 10 μL of compound in 4% DMSO was already present. Following 6 hours incubation at 37° C., 5% CO2, the luciferase activity was determined by adding 15 μl of Steady Lite Plus substrate (Perkin Elmer) to each well and readout performed on a ViewLux ultraHTS microplate imager (Perkin Elmer). Dose response curves were generated from measurements performed in quadruplicates.

| SMILES | TLR8-dIRR2_LEC |
| --- | --- |
| CCCC[C@@H](CCO)Nc1nc(N)ncc1OCc1cncn1[C@@H](C)c1ccccc1 [Compound 247] | 3.200 |
| C#CCOc1cnc(N)nc1NCCCC [Compound 248] | 0.529 |
| CCC[C@@H](CCO)Nc1nc(N)ncc1OCc1cc2ccccc2cn1 [Compound 249] | 0.036 |
| CCCC[C@@H](CCOC(=O)C(C)C)Nc1nc(N)ncc1OC [Compound 250] | 0.580 |
| CCC[C@H](C)Nc1nc(N)ncc1OCc1cn2ccccc2n1 [Compound 251] | 0.087 |
| CCC[C@@H](C)Nc1nc(N)ncc1OCc1nccc(OC)c1OC [Compound 252] | 1.310 |
| CCC[C@@H](C)Nc1nc(N)ncc1OCc1cn2ccccc2n1 [Compound 253] | 6.230 |
| CCC[C@@H](CO)Nc1nc(N)ncc1OCc1cc(C)nn1C [Compound 254] | 0.364 |
| CCCC[C@@H](CO)Nc1nc(N)ncc1OCc1cc(C)n(C)n1 [Compound 255] | 0.315 |
| CCC[C@@H](CO)Nc1nc(N)ncc1OCc1cccc(C(N)=O)n1 [Compound 256] | 0.039 |
| CCC[C@@H](CO)Nc1nc(N)ncc1OCc1cc(C)n(C)n1 [Compound 257] | 0.304 |
| CCC[C@@H](CO)Nc1nc(N)ncc1OCc1cc2ccccc2cn1 [Compound 258] | 0.060 |
| CCCC[C@@H](CO)Nc1nc(N)ncc1OCc1cccc(C(=O)O)n1 [Compound 259] | 1.250 |
| CCC[C@@H](CO)Nc1nc(N)ncc1OCc1cccc(C(=O)O)n1 [Compound 260] | >8.14 |
| CCCCNc1nc(N)ncc1O[C@@H](C)c1ccccn1 [Compound 262] | 0.363 |
| CCC[C@H](C)Nc1nc(N)ncc1OCc1nccc(OC)c1OC [Compound 263] | 0.056 |
| CCC[C@@H](CCO)Nc1nc(N)ncc1OCc1cc(C)nn1C [Compound 264] | 0.087 |
| CCCC(C)Nc1nc(N)ncc1OCCCc1ccc2c(c1)OCO2 (stereo not drawn) [Compound 265] | 0.591 |
| CCCC[C@@H](CCO)Nc1nc(N)ncc1OCCOC [Compound 266] | 0.557 |
| CCCC(C)Nc1nc(N)ncc1OCCOC (stereo not drawn) [Compound 267] | 1.710 |
| CCC[C@@H](CCO)Nc1nc(N)ncc1OCCOC [Compound 268] | 1.170 |

These compounds were tested against T1, human TLR7 (wild type sequence) (Homo sapiens, UniProt Q9NYK1) (assay: TLR7 cellular NFκB-luc reporter assay, wild type TLR7). Conditions: lowest effective concentration, wild type TLR7.
T1 construct: expressed in transfected cells; host or cells: HEK293
T1 sequence (Q9NYK1 27-1049): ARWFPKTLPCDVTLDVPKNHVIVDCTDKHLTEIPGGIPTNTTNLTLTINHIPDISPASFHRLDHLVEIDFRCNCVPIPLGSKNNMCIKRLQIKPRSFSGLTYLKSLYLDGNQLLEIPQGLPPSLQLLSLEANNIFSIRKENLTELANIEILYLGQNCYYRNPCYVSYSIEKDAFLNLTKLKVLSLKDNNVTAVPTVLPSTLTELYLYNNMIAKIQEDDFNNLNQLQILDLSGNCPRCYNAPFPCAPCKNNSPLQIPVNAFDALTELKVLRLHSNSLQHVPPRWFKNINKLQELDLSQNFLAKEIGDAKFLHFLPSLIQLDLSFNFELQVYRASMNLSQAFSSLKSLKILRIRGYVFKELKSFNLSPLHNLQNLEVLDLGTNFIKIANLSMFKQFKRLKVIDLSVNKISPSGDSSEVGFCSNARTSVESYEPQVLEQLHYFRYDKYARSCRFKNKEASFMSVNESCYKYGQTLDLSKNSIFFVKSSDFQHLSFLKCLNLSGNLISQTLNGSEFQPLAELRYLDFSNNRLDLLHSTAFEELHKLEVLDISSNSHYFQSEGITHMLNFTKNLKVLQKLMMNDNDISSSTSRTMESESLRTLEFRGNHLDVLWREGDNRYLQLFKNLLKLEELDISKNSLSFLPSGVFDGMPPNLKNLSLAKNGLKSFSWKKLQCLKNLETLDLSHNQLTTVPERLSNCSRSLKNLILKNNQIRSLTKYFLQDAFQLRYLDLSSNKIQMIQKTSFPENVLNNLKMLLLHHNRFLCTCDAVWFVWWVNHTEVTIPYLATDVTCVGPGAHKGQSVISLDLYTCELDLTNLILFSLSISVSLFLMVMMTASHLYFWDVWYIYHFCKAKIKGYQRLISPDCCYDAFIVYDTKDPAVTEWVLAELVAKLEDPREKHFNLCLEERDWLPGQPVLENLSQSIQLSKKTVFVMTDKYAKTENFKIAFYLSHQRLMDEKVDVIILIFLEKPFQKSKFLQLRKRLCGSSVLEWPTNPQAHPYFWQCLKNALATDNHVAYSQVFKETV
Type: cell-based
Parameters: unit not given here
Summary of the method: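 HEK293 cells were transiently transfected for 48 h with a CMV-driven wild-type or LRR2-deletion TLR7 or TLR8 plasmid plus an NFκB-luc reporter. They were then exposed to compound for 6 h at 37 °C and luciferase was read. LEC is the concentration giving an effect at least twofold above the assay SD, from quadruplicate dose-response curves.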

| SMILES | TLR7-wt_LEC |
| --- | --- |
| CCCC[C@@H](CCO)Nc1nc(N)ncc1OCc1cncn1[C@@H](C)c1ccccc1 [Compound 247] | 12.390 |
| C#CCOc1cnc(N)nc1NCCCC [Compound 248] | 2.120 |
| CCC[C@@H](CCO)Nc1nc(N)ncc1OCc1cc2ccccc2cn1 [Compound 249] | 0.039 |
| CCCC[C@@H](CCOC(=O)C(C)C)Nc1nc(N)ncc1OC [Compound 250] | 0.724 |
| CCC[C@H](C)Nc1nc(N)ncc1OCc1cn2ccccc2n1 [Compound 251] | 0.164 |
| CCC[C@@H](C)Nc1nc(N)ncc1OCc1nccc(OC)c1OC [Compound 252] | 4.020 |
| CCC[C@@H](C)Nc1nc(N)ncc1OCc1cn2ccccc2n1 [Compound 253] | 12.760 |
| CCC[C@@H](CO)Nc1nc(N)ncc1OCc1cc(C)nn1C [Compound 254] | 1.770 |
| CCCC[C@@H](CO)Nc1nc(N)ncc1OCc1cc(C)n(C)n1 [Compound 255] | 0.552 |
| CCC[C@@H](CO)Nc1nc(N)ncc1OCc1cccc(C(N)=O)n1 [Compound 256] | 1.630 |
| CCC[C@@H](CO)Nc1nc(N)ncc1OCc1cc(C)n(C)n1 [Compound 257] | 0.697 |
| CCC[C@@H](CO)Nc1nc(N)ncc1OCc1cc2ccccc2cn1 [Compound 258] | 0.074 |
| CCCC[C@@H](CO)Nc1nc(N)ncc1OCc1cccc(C(=O)O)n1 [Compound 259] | 6.980 |
| CCC[C@@H](CO)Nc1nc(N)ncc1OCc1cccc(C(=O)O)n1 [Compound 260] | 4.850 |
| CCCCNc1nc(N)ncc1O[C@@H](C)c1ccccn1 [Compound 262] | 0.658 |
| CCC[C@H](C)Nc1nc(N)ncc1OCc1nccc(OC)c1OC [Compound 263] | 0.049 |
| CCC[C@@H](CCO)Nc1nc(N)ncc1OCc1cc(C)nn1C [Compound 264] | 0.215 |
| CCCC(C)Nc1nc(N)ncc1OCCCc1ccc2c(c1)OCO2 (stereo not drawn) [Compound 265] | 0.752 |
| CCCC[C@@H](CCO)Nc1nc(N)ncc1OCCOC [Compound 266] | 1.070 |
| CCCC(C)Nc1nc(N)ncc1OCCOC (stereo not drawn) [Compound 267] | 4.880 |
| CCC[C@@H](CCO)Nc1nc(N)ncc1OCCOC [Compound 268] | 2.100 |

The compounds below were run on human TLR7 mutant sequence comprising a deletion in the second leucine-rich repeat (assay: TLR7 cellular NFκB-luc reporter assay, mutant TLR7 with deletion in the second leucine-rich repeat). Conditions: lowest effective concentration.
Type: cell-based
Parameters: unit not given here
Protocol: as §1, §2

| SMILES | TLR7-dIRR2_LEC |
| --- | --- |
| CCCC[C@@H](CCO)Nc1nc(N)ncc1OCc1cncn1[C@@H](C)c1ccccc1 [Compound 247] | 8.240 |
| C#CCOc1cnc(N)nc1NCCCC [Compound 248] | 0.654 |
| CCC[C@@H](CCO)Nc1nc(N)ncc1OCc1cc2ccccc2cn1 [Compound 249] | 0.172 |
| CCCC[C@@H](CCOC(=O)C(C)C)Nc1nc(N)ncc1OC [Compound 250] | 3.250 |
| CCC[C@H](C)Nc1nc(N)ncc1OCc1cn2ccccc2n1 [Compound 251] | 0.556 |
| CCC[C@@H](C)Nc1nc(N)ncc1OCc1nccc(OC)c1OC [Compound 252] | >25 |
| CCC[C@@H](C)Nc1nc(N)ncc1OCc1cn2ccccc2n1 [Compound 253] | >25 |
| CCC[C@@H](CO)Nc1nc(N)ncc1OCc1cc(C)nn1C [Compound 254] | 0.467 |
| CCCC[C@@H](CO)Nc1nc(N)ncc1OCc1cc(C)n(C)n1 [Compound 255] | 0.515 |
| CCC[C@@H](CO)Nc1nc(N)ncc1OCc1cccc(C(N)=O)n1 [Compound 256] | 0.100 |
| CCC[C@@H](CO)Nc1nc(N)ncc1OCc1cc(C)n(C)n1 [Compound 257] | 0.444 |
| CCC[C@@H](CO)Nc1nc(N)ncc1OCc1cc2ccccc2cn1 [Compound 258] | 0.153 |
| CCCC[C@@H](CO)Nc1nc(N)ncc1OCc1cccc(C(=O)O)n1 [Compound 259] | 3.150 |
| CCC[C@@H](CO)Nc1nc(N)ncc1OCc1cccc(C(=O)O)n1 [Compound 260] | 2.830 |
| CCCCNc1nc(N)ncc1O[C@@H](C)c1ccccn1 [Compound 262] | 0.168 |
| CCC[C@H](C)Nc1nc(N)ncc1OCc1nccc(OC)c1OC [Compound 263] | 0.159 |
| CCC[C@@H](CCO)Nc1nc(N)ncc1OCc1cc(C)nn1C [Compound 264] | 0.489 |
| CCCC(C)Nc1nc(N)ncc1OCCCc1ccc2c(c1)OCO2 (stereo not drawn) [Compound 265] | 3.700 |
| CCCC[C@@H](CCO)Nc1nc(N)ncc1OCCOC [Compound 266] | 1.890 |
| CCCC(C)Nc1nc(N)ncc1OCCOC (stereo not drawn) [Compound 267] | 0.719 |
| CCC[C@@H](CCO)Nc1nc(N)ncc1OCCOC [Compound 268] | 1.800 |
